Laboratory results taken from patent US9604933B2, “Pyrazolochalcones as potential anticancer agents” (COUNCIL OF SCIENTIFIC AND INDUSTRIAL RESEARCH, priority 2013, dated 2017).

How the values were obtained:
COLO-205 = test: NCI SRB cytotoxicity, colon COLO-205; assay type: cell-based; settings: Homo sapiens, 48 h exposure
Method: (§1) The pyrazolochalcones (7e, 8e, 10e, 11e, 12e, 13e and 8f) have been tested against fifty nine human tumor cell lines derived from nine cancer types (leukemia, non-small cell lung cancer, colon cancer, CNS cancer, melanoma, ovarian cancer, renal cancer, prostate cancer and breast cancer) as per the NCI protocol. For each compound, dose response curves for individual cell lines have been measured at a minimum of five concentrations at 10 fold dilutions. A protocol of 48 h continuous drug exposure has been used, and a sulforhodamine B (SRB) protein assay has been used to estimate cell viability or growth. The concentration for 50% cell growth inhibition (GI50), 50% cell death (LC50, 50% growth) and total cell growth inhibition (TGI, 0% growth) values were tabulated (Table-1). DMSO was used as control to calculate the values of GI50, LC50 and TGI. The compounds 7e, 8e, 10e, 11e, 12e, 13e and 8f has been evaluated for their in vitro cytotoxicity in […] cell lines from nine human cancer types of leukemia (K-562, SR), non-small cell lung (Hop-62, NCI-H226, NCI-H522), colon (HCT-116, HCT-15, HCC-2998), CNS (SF-539), melanoma (SK-MEL-5, UACC-62, M14), ovarian (IGROV1), renal (A498), prostate (PC3) and breast (BT-549, MDA-MB-435, HS578T) origin. The results are expressed as percent of cell growth determined relative to that of untreated control cells (Table 2).

UACC-257 = test: NCI SRB cytotoxicity, melanoma UACC-257; assay type: cell-based; settings: Homo sapiens, 48 h exposure
Method: as §1

HS 578T = test: NCI SRB cytotoxicity, breast HS 578T; assay type: cell-based; settings: Homo sapiens, 48 h exposure
Method: as §1

SN12C = test: NCI SRB cytotoxicity, renal SN12C; assay type: cell-based; settings: Homo sapiens, 48 h exposure
Method: as §1

CCRF-CEM = test: NCI SRB cytotoxicity, leukemia CCRF-CEM; assay type: cell-based; settings: Homo sapiens, 48 h exposure
Method: as §1

PC-3 = test: NCI SRB cytotoxicity, prostate PC-3; assay type: cell-based; settings: Homo sapiens, 48 h exposure
Method: as §1

CAKI-1 = test: NCI SRB cytotoxicity, renal CAKI-1; assay type: cell-based; settings: Homo sapiens, 48 h exposure
Method: as §1

SNB-19 = test: NCI SRB cytotoxicity, CNS SNB-19; assay type: cell-based; settings: Homo sapiens, 48 h exposure
Method: as §1

SF-268 = test: NCI SRB cytotoxicity, CNS SF-268; assay type: cell-based; settings: Homo sapiens, 48 h exposure
Method: as §1

NCI-H522 = test: NCI SRB cytotoxicity, non-small cell lung NCI-H522; assay type: cell-based; settings: Homo sapiens, 48 h exposure
Method: as §1

HCC-2998 = test: NCI SRB cytotoxicity, colon HCC-2998; assay type: cell-based; settings: Homo sapiens, 48 h exposure
Method: as §1

M14 = test: NCI SRB cytotoxicity, melanoma M14; assay type: cell-based; settings: Homo sapiens, 48 h exposure
Method: as §1

NCI-H460 = test: NCI SRB cytotoxicity, non-small cell lung NCI-H460; assay type: cell-based; settings: Homo sapiens, 48 h exposure
Method: as §1

LOX IMVI = test: NCI SRB cytotoxicity, melanoma LOX IMVI; assay type: cell-based; settings: Homo sapiens, 48 h exposure
Method: as §1

K-562 = test: NCI SRB cytotoxicity, leukemia K-562; assay type: cell-based; settings: Homo sapiens, K562, 48 h exposure
Method: as §1

HCT-116 = test: NCI SRB cytotoxicity, colon HCT-116; assay type: cell-based; settings: Homo sapiens, 48 h exposure
Method: as §1

Melanoma = test: NCI SRB cytotoxicity, melanoma panel average; assay type: cell-based, human; settings: average of cell lines; for LC50: read-out: Log10 LC50 (concentration in mol/L causing 50% cell death) (converted)
Method: as §1
(§2) Each cancer type represents the average of six to eight different cancer cell lines.

HT29 = test: NCI SRB cytotoxicity, colon HT29; assay type: cell-based; settings: Homo sapiens, HT-29, 48 h exposure
Method: as §1

MALME-3M = test: NCI SRB cytotoxicity, melanoma MALME-3M; assay type: cell-based; settings: Homo sapiens, 48 h exposure
Method: as §1

Non-small cell lung = test: NCI SRB cytotoxicity, non-small cell lung panel average; assay type: cell-based, human; settings: average of cell lines; for LC50: read-out: Log10 LC50 (concentration in mol/L causing 50% cell death) (converted)
Method: as §1, §2

SR = test: NCI SRB cytotoxicity, leukemia SR; assay type: cell-based; settings: Homo sapiens, 48 h exposure
Method: as §1

OVCAR-3 = test: NCI SRB cytotoxicity, ovarian OVCAR-3; assay type: cell-based; settings: Homo sapiens, 48 h exposure
Method: as §1

OVCAR-8 = test: NCI SRB cytotoxicity, ovarian OVCAR-8; assay type: cell-based; settings: Homo sapiens, 48 h exposure
Method: as §1

SK-MEL-2 = test: NCI SRB cytotoxicity, melanoma SK-MEL-2; assay type: cell-based; settings: Homo sapiens, 48 h exposure
Method: as §1

OVCAR-4 = test: NCI SRB cytotoxicity, ovarian OVCAR-4; assay type: cell-based; settings: Homo sapiens, 48 h exposure
Method: as §1

MDA-MB-435 = test: NCI SRB cytotoxicity, melanoma MDA-MB-435; assay type: cell-based; settings: Homo sapiens, Melanoma panel MDA-MB-435, 48 h exposure
Method: as §1

SK-MEL-28 = test: NCI SRB cytotoxicity, melanoma SK-MEL-28; assay type: cell-based; settings: Homo sapiens, 48 h exposure
Method: as §1

SK-OV-3 = test: NCI SRB cytotoxicity, ovarian SK-OV-3; assay type: cell-based; settings: Homo sapiens, 48 h exposure
Method: as §1

SF-539 = test: NCI SRB cytotoxicity, CNS SF-539; assay type: cell-based; settings: Homo sapiens, 48 h exposure
Method: as §1

SNB-75 = test: NCI SRB cytotoxicity, CNS SNB-75; assay type: cell-based; settings: Homo sapiens, 48 h exposure
Method: as §1

UACC-62 = test: NCI SRB cytotoxicity, melanoma UACC-62; assay type: cell-based; settings: Homo sapiens, 48 h exposure
Method: as §1

HOP92 = test: NCI SRB cytotoxicity, non-small cell lung HOP92; assay type: cell-based; settings: Homo sapiens, HOP-92, 48 h exposure
Method: as §1

DU-145 = test: NCI SRB cytotoxicity, prostate DU-145; assay type: cell-based; settings: Homo sapiens, 48 h exposure
Method: as §1

[1] = Homo sapiens, read-out: Log10 GI50 (concentration in mol/L causing 50% growth inhibition) (converted)

SMILES	GI50 (COLO-205) [µM]	GI50 (UACC-257) [µM]	GI50 (HS 578T) [µM]	GI50 (SN12C) [µM]	GI50 (CCRF-CEM) [µM]	GI50 (PC-3) [µM]	GI50 (CAKI-1) [µM]	GI50 (SNB-19) [µM]	GI50 (SF-268) [µM]	GI50 (NCI-H522) [µM]	GI50 (HCC-2998) [µM]	GI50 (M14) [µM]	GI50 (NCI-H460) [µM]	GI50 (LOX IMVI) [µM]	GI50 (K-562) [µM]	GI50 (HCT-116) [µM]	LC50 (Melanoma; Homo sapiens) [µM]	Log10 TGI (concentration in mol/L causing total growth inhibition) (Melanoma) [mol/L]	GI50 (HT29) [µM]	GI50 (MALME-3M) [µM]	other results
COc1cc(-c2cc(/C=C/C(=O)c3ccc(F)c(F)c3)[nH]n2)cc(OC)c1OC [13e, (E)-1-(3,4-difluorophenyl)-3-(3-(3,4,5-trimethoxyphenyl)-1H-pyrazol-5-yl)prop-2-en-1-one]	1.69	1.75	3.58	3.37	3.8	1.66	2.98	3.64	3.15	1.57	3.69	2.7	2.96	3.18	3.31	4	64.6	−5.00	2.62	2.96	Log10 GI50 (concentration in mol/L causing 50% growth inhibition) (Melanoma): −5.56 mol/L; LC50 (Non-small cell lung; Homo sapiens): 87.1 µM; Log10 GI50 (concentration in mol/L causing 50% growth inhibition) (Non-small cell lung): −5.54 mol/L; Log10 TGI (concentration in mol/L causing total growth inhibition (0% growth)) (Non-small cell lung): −4.75 mol/L; GI50 (SR): 2.92 µM; GI50 (OVCAR-3): 2.39 µM; GI50 (OVCAR-8): 2.88 µM; GI50 (SK-MEL-2): 2.3 µM; GI50 (OVCAR-4): 2.2 µM; GI50 (MDA-MB-435): 2.88 µM; GI50 (SK-MEL-28): 5.31 µM; GI50 (SK-OV-3): 3.53 µM; GI50 (SF-539): 3.76 µM; GI50 (SNB-75): 2.9 µM; GI50 (UACC-62): 2.38 µM
COc1cc(-c2cc(/C=C/C(=O)c3ccc(Cl)c(Cl)c3)[nH]n2)cc(OC)c1OC [12e, (E)-1-(3,4-dichlorophenyl)-3-(3-(3,4,5-trimethoxyphenyl)-1H-pyrazol-5-yl)prop-2-en-1-one]	1.26	16.3	16.6	13.7	2.15	5.95	16.9	9.83	13.7	1.33	9.56	18.2	4.9	3.39	4.96	2.95	95.5	−4.21	1.15	29.2	GI50 (Melanoma; [1]): 13.2 µM; GI50 (Non-small cell lung; [1]): 6.61 µM; LC50 (Non-small cell lung; Homo sapiens): 200 µM; Log10 TGI (concentration in mol/L causing total growth inhibition (0% growth)) (Non-small cell lung): −4.52 mol/L; GI50 (SR): 0.39 µM; GI50 (OVCAR-3): 6.99 µM; GI50 (OVCAR-8): 6.3 µM; GI50 (SK-MEL-2): 13.9 µM; GI50 (HOP92): 2.53 µM; GI50 (OVCAR-4): 10.8 µM; GI50 (MDA-MB-435): 5.65 µM; GI50 (SK-MEL-28): 18.5 µM; GI50 (SK-OV-3): 4.19 µM; GI50 (SF-539): 4.31 µM; GI50 (SNB-75): 8.7 µM; GI50 (UACC-62): 18.8 µM
COc1cc(-c2cc(/C=C/C(=O)c3ccc4c(c3)OCO4)[nH]n2)cc(OC)c1OC [11e, (E)-1-(benzo[d][1,3]dioxol-5-yl)-3-(3-(3,4,5-trimethoxyphenyl)-1H-pyrazol-5-yl)prop-2-en-1-one]	1.87	2.46	3.71	3.94	1.57	2.81	5.51	4.3	2.97	1.03	1.95	3.86	2.12	1.82	3.2	1.85	72.4	−4.52	2.18	4.42	Log10 GI50 (concentration in mol/L causing 50% growth inhibition) (Melanoma): −4.14 mol/L; LC50 (Non-small cell lung; Homo sapiens): 53.7 µM; Log10 GI50 (concentration in mol/L causing 50% growth inhibition) (Non-small cell lung): −4.27 mol/L; Log10 TGI (concentration in mol/L causing total growth inhibition (0% growth)) (Non-small cell lung): −4.70 mol/L; GI50 (SR): 0.55 µM; GI50 (OVCAR-3): 3.38 µM; GI50 (OVCAR-8): 2.85 µM; GI50 (SK-MEL-2): 10.3 µM; GI50 (OVCAR-4): 3.8 µM; GI50 (MDA-MB-435): 2.39 µM; GI50 (SK-MEL-28): 2.48 µM; GI50 (SK-OV-3): 5.76 µM; GI50 (SF-539): 2.07 µM; GI50 (DU-145): 2.72 µM; GI50 (SNB-75): 2.01 µM; GI50 (UACC-62): 4.67 µM
